Experimental data reported in patent publication US20160208016A1, “Anti-ADAM12 antibodies for the treatment of cancer” (UNIVERSITY OF COPENHAGEN, priority 2013, published 2016).

Columns and labels:
[1] = tested on: 293-VnR cells transfected with ADAM12Δcyt; test: In situ solid-phase gelatinase assay, 293-VnR cells transfected with ADAM12Δcyt; type: cell-based, human; settings: 10 μM overnight vs vehicle only
Procedure: Data are expressed as the mean gelatin degradation (±s.d.) relative to the mean ADAM12Δcyt degradation value (set at 100%). (B) In situ solid-phase gelatinase assay of 293-VnR cells transfected with ADAM12Δcyt or control vector and treated with GM6001 (10 μM), TAPI-2 (10 μM), or vehicle only (control) overnight. Cells were stained for ADAM12 and for the nucleus (DAPI). The mean number of gelatin-degrading ADAM12-positive cells (±s.d.) is presented as a percentage of the total number of ADAM12-positive cells. (C) In situ solid-phase gelatinase assay of 293-VnR cells cotransfected with ADAM12Δcyt and control or MMP-14 siRNA. Mean data (±s.d.) are expressed relative to the mean siRNA control degradation value (set at 100%). Inset, Western blots of total cell lysates analyzed for MMP-14. […] Gelatin degradation was quantified by measuring the degraded area in μm^2 and correlated to the number of cells. […]
(A) In situ solid-phase gelatinase assay of HEK293 cells transfected with ADAM12Δcyt and immunostained for ADAM12, and DAPI staining. […] Precipitates and input samples were analysed by Western blotting with indicated antibodies. […] (E) Mean percentage cell-surface staining of αVβ3 integrin (LM609 antibody staining) for MCF7, MCF7-A12Δcyt, MCF7-A12Δcyt+dox, and MDA-MB-231 cell lines analyzed by FACS. […]

[2] = tested on: MCF7-A12Δcyt cells; test: Type I collagen-induced apoptosis in 3-D collagen cultures, MCF7-A12Δcyt; type: cell-based, human; settings: 10 μM GM6001 every second day
Procedure: (§1) (A) MCF7, MCF7-A12Δcyt, and MCF7-A12Δcyt+dox cell lines were embedded in 3-D collagen and the mean percentage of apoptotic bodies (±s.d.) was determined from >500 cells per experiment. (B) Western blot analysis of ADAM12, MMP-14, BIK, and BIM from cells recovered from 3-D collagen. The bar graph depicts levels of BIK and BIM; determined by quantification of the band intensities (using ImageJ software) and normalized to actin. The MCF7 level was set to 1. (C,D) Mean percentage of apoptotic bodies (±s.d.) from >500 cells of 3-D collagen cultures of MCF7, MCF7-A12Δcyt, and MCF7-A12Δcyt+dox (C) and MDA-MB-231. (D) Cells treated every second day with control mouse IgG, 10 μg/ml 8F8, or 10 μM GM6001. (E) Western blot of cells recovered from 3-D cultures of MDA-MB-231 cells analyzed for MMP-14 after siRNA treatment. […]
(§2) (A) A representative micrograph of MCF7-A12Δcyt+dox cells extracted from 3-D cultures and stained with DAPI. Apoptosis was evaluated by counting the percentage of the number of cells with chromatin condensation and nuclear fragmentation (arrow=apoptotic bodies). […]
(§3) Cells were seeded on dishes coated with gelatin (10 μg/ml) coupled to Oregon Green® 488 dye (G-13186) from Molecular Probes (Life Technologies, Naerum, Denmark). […] For each experiment more than 1000 cells were counted and same type of experiment was repeated independently at least three times. […]

[3] = tested on: wild-type MCF7 cells; test: Type I collagen-induced apoptosis in 3-D collagen cultures, wild-type MCF7; type: cell-based, human; settings: 10 μg/ml 8F8 or 10 μM GM6001 every second day
Procedure: as §1, §2, §3

[4] = tested on: MCF7-A12Δcyt+dox cells; test: Type I collagen-induced apoptosis in 3-D collagen cultures, MCF7-A12Δcyt+dox; type: cell-based, human; settings: 10 μg/ml 8F8 or 10 μM GM6001 every second day
Procedure: as §1, §2, §3

[5] = tested on: MDA-MB-231 cells; test: Apoptosis in 3-D collagen cultures, MDA-MB-231; type: cell-based, human; settings: 10 μg/ml 8F8 or 10 μM GM6001 every second day, compared with control cells
Procedure: as §1, §2, §3

[6] = biological target: αVβ3 integrin (UniProt P06756); test: cell-based or functional assay
Chain of UniProt P06756 (P06756 31-1048, chain 1 of 2): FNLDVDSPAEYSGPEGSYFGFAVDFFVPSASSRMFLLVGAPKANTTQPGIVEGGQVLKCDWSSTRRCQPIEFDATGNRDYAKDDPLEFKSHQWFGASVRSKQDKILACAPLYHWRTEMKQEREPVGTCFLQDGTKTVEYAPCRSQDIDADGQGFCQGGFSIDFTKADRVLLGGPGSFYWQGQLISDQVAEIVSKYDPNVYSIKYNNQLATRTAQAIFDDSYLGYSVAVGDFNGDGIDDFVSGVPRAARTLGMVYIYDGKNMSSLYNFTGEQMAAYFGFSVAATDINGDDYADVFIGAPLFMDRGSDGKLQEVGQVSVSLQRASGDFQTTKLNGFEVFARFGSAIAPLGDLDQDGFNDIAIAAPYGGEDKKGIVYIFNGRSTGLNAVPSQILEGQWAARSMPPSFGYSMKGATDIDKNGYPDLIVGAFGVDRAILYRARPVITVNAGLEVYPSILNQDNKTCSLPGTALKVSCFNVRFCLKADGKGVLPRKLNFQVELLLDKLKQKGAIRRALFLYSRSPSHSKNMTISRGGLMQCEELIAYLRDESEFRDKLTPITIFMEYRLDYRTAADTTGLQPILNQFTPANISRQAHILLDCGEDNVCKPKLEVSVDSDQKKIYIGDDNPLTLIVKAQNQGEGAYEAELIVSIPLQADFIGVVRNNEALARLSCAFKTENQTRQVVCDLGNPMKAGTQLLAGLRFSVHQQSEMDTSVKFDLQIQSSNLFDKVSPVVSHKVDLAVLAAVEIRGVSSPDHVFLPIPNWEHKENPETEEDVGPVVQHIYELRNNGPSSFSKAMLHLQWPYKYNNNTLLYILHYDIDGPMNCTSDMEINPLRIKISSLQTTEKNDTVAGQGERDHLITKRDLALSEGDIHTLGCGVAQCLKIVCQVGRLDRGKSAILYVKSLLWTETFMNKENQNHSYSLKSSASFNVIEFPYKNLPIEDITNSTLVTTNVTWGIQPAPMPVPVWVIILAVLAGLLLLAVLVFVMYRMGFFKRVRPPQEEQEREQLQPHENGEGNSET
Chain of UniProt P06756 (P05106 27-788, chain 2 of 2, further chain): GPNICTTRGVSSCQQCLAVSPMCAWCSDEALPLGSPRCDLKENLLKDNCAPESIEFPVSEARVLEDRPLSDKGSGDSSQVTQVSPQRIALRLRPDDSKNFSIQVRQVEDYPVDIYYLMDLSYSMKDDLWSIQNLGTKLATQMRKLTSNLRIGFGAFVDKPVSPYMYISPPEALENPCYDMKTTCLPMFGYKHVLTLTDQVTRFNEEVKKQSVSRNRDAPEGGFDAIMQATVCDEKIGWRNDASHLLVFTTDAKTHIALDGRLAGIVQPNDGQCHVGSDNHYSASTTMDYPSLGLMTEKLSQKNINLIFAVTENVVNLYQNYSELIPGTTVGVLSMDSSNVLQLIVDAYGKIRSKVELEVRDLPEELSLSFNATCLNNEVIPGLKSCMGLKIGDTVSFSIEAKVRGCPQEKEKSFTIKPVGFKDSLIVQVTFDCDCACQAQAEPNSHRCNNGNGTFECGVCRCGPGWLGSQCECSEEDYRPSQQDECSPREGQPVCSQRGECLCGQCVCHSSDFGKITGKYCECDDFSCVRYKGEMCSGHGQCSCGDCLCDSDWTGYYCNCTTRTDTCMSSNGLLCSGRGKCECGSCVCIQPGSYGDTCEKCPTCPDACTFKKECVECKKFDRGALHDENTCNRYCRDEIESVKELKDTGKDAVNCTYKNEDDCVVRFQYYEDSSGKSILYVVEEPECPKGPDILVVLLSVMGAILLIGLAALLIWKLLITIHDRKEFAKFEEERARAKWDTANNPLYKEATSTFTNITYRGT

Compound | gelatin degradation [1] | fraction of apoptotic bodies [2] | effect on apoptosis (apoptotic bodies, ApopTag) [3] | effect on apoptosis (apoptotic bodies, ApopTag) [4] | levels of apoptotic bodies [5] | reduction of gelatin degradation in MCF7-A12Δcyt cell cultures [6] [%]
CNC(=O)[C@H](Cc1c[nH]c2ccccc12)NC(=O)[C@@H](CC(=O)NO)CC(C)C [GM6001] | significant reduction | significantly increased | no effects | no effects | significantly increased | –
CC(C)C[C@H](CC(=O)NO)C(=O)N[C@H](C(=O)N[C@@H](C)C(=O)NCCN)C(C)(C)C [TAPI-2] | significant reduction | – | – | – | – | –
mouse monoclonal antibody LM609 against αVβ3 integrin (Chemicon/Millipore) | – | – | – | – | – | 80
